Data published in patent publication US5607969A, “L-DOPA ethyl ester to treat Parkinson's disease” (priority 1995, dated 1997).
Entries after “also recorded” stand apart in the source; their conditions may differ. Counter-ions that a name gives are not always drawn. Like-named read-outs stand apart in the source and are kept apart here.

Tests used:
[1] = Oral administration of L-DOPA ethyl ester to volunteers, plasma L-DOPA levels; type: in vivo, human; conditions: humans
Protocol: Human volunteers orally received 100 mg equivalents of L-DOPA as L-DOPA ethyl ester prepared according to Example 1 and formulated as described in Example 5. Plasma levels of L-DOPA following administration of representative patients are listed below in Table 5.

[2] = test system: fluctuating Parkinsonian patients; test: First oral clinical trial in fluctuating Parkinsonian patients; type: in vivo, human; conditions: four occasions over two days, five patients
Protocol: This was the second in a series of oral clinical trials carried out with L-DOPA ethyl ester. The first clinical trial was carried out in five fluctuating Parkinsonian patients in the hospital setting where L-DOPA ethyl ester was administered on four occasions over a two day period.

[3] = Bio-availability of L-DOPA ethyl ester in rats (subcutaneous), plasma L-DOPA profile; type: in vivo; conditions: s.c.
Protocol: Three subgroups of rats, each comprising four males and four females, were injected subcutaneously with 100 mg./kg. L-DOPA equivalents as L-DOPA ethyl ester. The L-DOPA ethyl ester was prepared as described in Example 1 and formulated as described in Example 4. After injection, blood samples were taken from the tail at the times shown below and analyzed for L-DOPA as described in T. Wikberg, J. of Pharmaceutical & Biomedical Analysis 9: 167-176 (1991). […] The L-DOPA plasma profile following injection is shown below: […]

[4] = test system: fluctuating Parkinsonian patients; test: Second oral clinical trial: safety, tolerability and preliminary efficacy of L-DOPA ethyl ester, sub-chronic; type: in vivo, human
Protocol: A clinical trial was carried out to determine the safety, tolerability, and preliminary efficacy of L-DOPA ethyl ester administered sub-chronically via the oral route in eight fluctuating Parkinsonian patients.
In the second clinical trial, all patients filled out daily diary cards for at least 10 days prior to study entry to ensure their reliability. Upon study entry they were instructed to continue filling out daily diary cards for the 10-day period during which they were taking L-DOPA ethyl ester.
Three out of the patients' normal daily doses with levodopa/carbidopa or levodopa/benserazide were switched to L-DOPA ethyl ester, each day for ten days. At the beginning and end of this ten-day period, a physical exam was performed and blood chemistry analyzed.

[5] = Stability of L-DOPA ethyl ester prepared according to Examples 1 and 2 (Table 2); type: physicochemical; parameters: key to COLOR: A: White with gray particles; B: Cream; C: WhiteYellow; D: Yellow; E: Dark Yellow; F: Gray; IMPURITIES: unit not given beside the values
Text: | STABILITY OF L-DOPA ESTER PREPARED

[6] = test system: Parkinson's Disease patients having response fluctuations; test: Clinical trial: administration of L-DOPA ethyl ester by injection (UPDRS on/off phases); type: in vivo, human
Protocol: A clinical trial was undertaken to assess the clinical efficacy of L-DOPA ethyl ester administered by sub-cutaneous injection.
The solution for injection L-DOPA ethyl ester 100mg, HCl to pH 4.0 and purified water as the vehicle.
Ten Parkinson's Disease patients having response fluctuations were hospitalized. These patients are typified in have "on" phases fluctuating with incapacitating "off" phases. Patients were administered s.c. or i.m. L-DOPA ethyl ester at escalating doses of 150-300mg in 2ml vehicle, twice daily, one hour after an oral capsule containing 25mg of carbidopa. "Off" and "on" UPDRS (Unified Parkinson's Disease Rating Scale) profiles, time to "on" phase and duration of "on" phase were measured. Blood samples were taken every 10 minutes post-L-DOPA ethyl ester administration for measurement of levodopa levels.

[7] = Hygroscopicity, stability and crystallization of L-DOPA ethyl ester hydrochloride / free base made by conventional methods; type: physicochemical
Text: GB Patent No. 1,364,505 and corresponding U.S. Pat. No. 3,803,120, assigned to Hoffman-La Roche, describe the synthesis of L-DOPA ethyl ester hydrochloride salt and free base. This compound synthesized is used as an intermediate in the synthesis of other compounds and is not characterized in the patent specification. […] This material cannot be used for pharmaceutical compositions.

[8] = literature, hydrochloride, cited from earlier work
[9] = 25° C. -N2, 1 m, listed as Example 1
[10] = 25° C. -N2, 2 m, listed as Example 1
[11] = 25° C. -N2, 4 m, listed as Example 1
[12] = 40° C., 1 m, listed as Example 1
[13] = 40° C., 2 m, listed as Example 1
[14] = 40° C., 4 m, listed as Example 1
[15] = s.c./i.m. injection, dose dependence
[16] = synthesized by the methods of GB 1,364,505 / U.S. 3,803,120

With `CCOC(=O)[C@@H](N)Cc1ccc(O)c(O)c1` [L-DOPA ethyl ester] the “conversion of L-DOPA ethyl ester to L-DOPA” value [1] was “rapid conversion of L-DOPA ethyl ester to L-DOPA in humans”, the adverse reactions [2] was “No adverse reactions were recorded in any of the patients” and the “conversion to L-DOPA” value [3] was “fully converted to L-DOPA”. For the same molecule, the “L-DOPA ethyl ester detected in plasma samples” value ([3]; 100 mg./kg. L-DOPA equivalents) was “No L-DOPA ethyl ester was detected in any of the plasma samples”, the kinetic profile ([3]; compared with L-DOPA) was “kinetic profile similar to L-DOPA” and the serum chemistry ([4]; following ten-day treatment) was “no abnormalities or changes for any patient”. For the same molecule, the “duration of the anti-Parkinsonian effect” value ([4]; ten days) was “marked beneficial effect”, the “latency to initiation of drug action” value ([4]; ten days) was “marked beneficial effect” and the “variability of the response of the patient to the drug's effect” value ([4]; ten days) was “significant decrease”. The safety and tolerability ([4]; ten days, three times per day) was “well tolerated by all individuals in the trial; also recorded: safe, well tolerated”, the “unpredictability of drug response” value ([4]; ten days, three times per day, potential advantage) was “reducing the unpredictability of drug response” and the “patient complaints / adverse reaction” value ([4]; ten-day treatment, eight patients) was “no patient complaints nor any reported adverse reaction”. The COLOR [5, 9] was “A”, the IMPURITIES [5, 9] was 1.2 and the COLOR [5, 10] was “B”. The IMPURITIES [5, 10] was 0.7, the COLOR [5, 11] was “C” and the IMPURITIES [5, 11] was 0.6. For the same molecule, the COLOR [5, 12] was “A”, the IMPURITIES [5, 12] was 2.4 and the COLOR [5, 13] was “B”. The IMPURITIES [5, 13] was 0.7, the ASSAY ([5]; 40° C., 4 m, 172800 min, listed as Example 1, 172800 min) was 99.7% and the COLOR [5, 14] was “C”. For the same molecule, the IMPURITIES [5, 14] was 0.5, the remaining at 720 h ([5]; storage, 25° C. -N2, 1 m) was 98% and the remaining at 1440 h ([5]; storage, 25° C. -N2, 2 m) was 99.4%. For the same molecule, the remaining at 2880 h ([5]; storage, 25° C. -N2, 4 m) was 99.5%, the remaining at 720 h ([5]; storage, 40° C., 1 m) was 98.9% and the remaining at 1440 h ([5]; storage, 40° C., 2 m) was 99.6%. For the same molecule, the “MEAN TIME TO "ON" (RANGE)” value ([6]; 150 mg i.m., 2 injections, range (30-45)) was 37.5 min, the “MEAN DURATION OF "ON" (RANGE)” value ([6]; 150 mg i.m., 2 injections, range (60-70)) was 65 min and the “MEAN DURATION OF "ON" (RANGE)” value ([6]; 150 mg s.c., 6 injections, range (10-55)) was 31.4 min. The “MEAN TIME TO "ON" (RANGE)” value ([6]; 150 mg s.c., 6 injections, range (25-90)) was 54 min, the “MEAN TIME TO "ON" (RANGE)” value ([6]; 200 mg i.m., 5 injections, range (20-40)) was 29.2 min and the “MEAN DURATION OF "ON" (RANGE)” value ([6]; 200 mg i.m., 5 injections, range (28-175)) was 104.5 min. For the same molecule, the “MEAN TIME TO "ON" (RANGE)” value ([6]; 200 mg s.c., 19 injections, range (10-120)) was 38.6 min, the “MEAN DURATION OF "ON" (RANGE)” value ([6]; 200 mg s.c., 19 injections, range (10-235)) was 126.9 min and the “MEAN TIME TO "ON" (RANGE)” value ([6]; 250 mg i.m., 5 injections, range (10-35)) was 27.5 min. The “MEAN DURATION OF "ON" (RANGE)” value ([6]; 250 mg i.m., 5 injections, range (75-170)) was 133.3 min, the “MEAN TIME TO "ON" (RANGE)” value ([6]; 250 mg s.c., 8 injections, range (20-40)) was 27.1 min and the “MEAN DURATION OF "ON" (RANGE)” value ([6]; 250 mg s.c., 8 injections, range (60-210)) was 155 min. For the same molecule, the “MEAN TIME TO "ON" (RANGE)” value ([6]; 300 mg i.m., 7 injections, range (5-35)) was 18.3 min, the “MEAN DURATION OF "ON" (RANGE)” value ([6]; 300 mg i.m., 7 injections, range (135-265)) was 196.7 min and the “MEAN TIME TO "ON" (RANGE)” value ([6]; 300 mg s.c., 6 injections, range (5-37)) was 22.8 min. For the same molecule, the “MEAN DURATION OF "ON" (RANGE)” value ([6]; 300 mg s.c., 6 injections, range (80-315)) was 193 min, the “patients turned to an "on" phase” value ([6]; s.c. LDEE injection) was “All patients were turned to an "on" phase” and the “local or general side effects” value ([6]; s.c./i.m. injection) was “No local or general side effects were observed”. The plasma levodopa elevations ([6]; s.c./i.m. injection) was “rapid and sustained plasma levodopa elevations”, the “duration of "on" phases” value [6, 15] was “increased in a dose-dependant manner” and the “latency of onset of "on" phases” value [6, 15] was “decreased”.

For `CCOC(=O)[C@@H](N)Cc1ccc(O)c(O)c1` [L-DOPA ethyl ester hydrochloride salt, L-DOPA ethyl ester hydrochloride], the hygroscopicity ([7]; applicant's own finding, hydrochloride) was “hygroscopic nature”, the crystallization [7, 16] was “difficult to crystallize” and the stability [7, 16] was “not stable”. For the same molecule, the crystallization [8] was “difficult to crystallize”, the hygroscopicity [8] was “hygroscopic” and the crystallization ([8]; listed as ethyl ester) was “could not be crystallized as its hydrochloride salt”. For the same molecule, the hygroscopicity ([8]; listed as ethyl ester) was “hygroscopic potential”.

With `CCOC(=O)[C@@H](N)Cc1ccc(O)c(O)c1` [Example 2a, L-DOPA ethyl ester] the COLOR ([5]; 25° C. -N2, 1 m) was “D”, the IMPURITIES ([5]; 25° C. -N2, 1 m) was 16.9 and the ASSAY ([5]; 25° C. -N2, 1 m, 43200 min) was 83.1%. The COLOR ([5]; 25° C. -N2, 2 m) was “E”, the IMPURITIES ([5]; 25° C. -N2, 2 m) was 17.2 and the ASSAY ([5]; 25° C. -N2, 2 m, 86400 min) was 84.4%. For the same molecule, the COLOR ([5]; 40° C., 1 m) was “E”, the IMPURITIES ([5]; 40° C., 1 m) was 20.9 and the ASSAY ([5]; 40° C., 1 m, 43200 min) was 82.6%. The COLOR ([5]; 40° C., 2 m) was “E”, the IMPURITIES ([5]; 40° C., 2 m) was 19.3 and the ASSAY ([5]; 40° C., 2 m, 86400 min) was 80.0%. For the same molecule, the ASSAY ([5]; t = 0) was 87%.
